This note sets out measurements from patent publication EP0043971A1, “Indanoneoxyalkylpiperazine derivatives, the preparation thereof and pharmaceutical compositions containing the same” (priority 1980, dated 1982).

For one test, the system named is weiblichen NMRI-Mäusen. The test is described as follows: Sedative effect: inhibition of orientation hypermotility induced by a new environment, photoelectric measurement. The class given is in vivo, Maus. As to conditions: for ED50: Mus musculus, po, 0.5 h, Maus, read-out: Motilitätshemmung ED 50 %; for Wirkungsstärke (sedativ) der Referenzsubstanz / Motilitätshemmung um 50 %: -mal größere Dosen als Referenzsubstanz: relative to Chlorpromazin; for Wirkungsstärke (sedativ) der Referenzsubstanz: mouse p.o.; for sedative Wirkung: result in words. The source says:
(§1) Sie eignen sich mit bevorzugter sedativ/transquilisierender und anti-monaminerger Wirkung als Sedativa/Hypnotika oder als Tranquilizer bzw. Neuroleptica. Andere erfindungsgemäße Verbindungen eignen sich wegen ihrer relativ selektiven blutdrucksenkenden Wirksamkeit zur Behandlung der Hypertonie und zur Entlastung des Herzen bei Herzinsuffizienz. ) Zum Nachweis der pharmakologischen Wirkungen wurden folgende Methoden verwendet: • 1. Sedative Wirkung • 4-8 Gruppen von jeweils 3 weiblichen NMRI-Mäusen erhalten die Substanz oral appliziert. Die photoelektrische Bestimmung der durch eine neue Umgebung induzierten Orientierungshypermotilität erfolgt 30 min nach der Applikation der Substanzen für eine Dauer von 30 min. • Als ED 50 wird die Dosis bestimmt, welche im Vergleich zu Placebo-behandelten Kontrolltieren eine Abnahme der Orientierungshypermotilität um 50 % bewirkt. • 2. Anti-Methamphetamin-Wirkung • Methamphetamin-HCl (2,5 mg/kg i.v.) ruft an Ratten regelmäßig folgende Symptome hervor: motorische Unruhe, Such- und Schnüffelbewegungen, Fellsträuben sowie Tremor (Janssen et al., Arzeim. Forsch./Drug Res. 13, 205, 1963, RANDRUP et al., Psychopharmacologia 11, 300, 1967). • Die Prüfsubstanzen werden 30 min vor Methamphetamin intraperitoneal verabfolgt. Kriterium für einen Substanzeffekt ist das Ausbleiben der Schnüffelbewegungen innerhalb eines 5-minütigen Beobachtungszeitraums nach Methamphetamin-Injektion. • Als mittlere Hemmdosis (ED 50) wird mittels Probitanalyse die Dosis ermittelt, die das Symptom bei der Hälfte der Tiere verhindert. • 3. Hypotensive Wirkung • Die blutdrucksenkende Wirkung wurde an narkotisierten Ratten (Stamm: Spraque Dawley, Gewicht: 230-280 g) in Urethan-Narkose (1,78 g/kg i.p.) nachgewiesen. Der Blutdruck wurde in der Aorta carotis gemessen. Die Substanzapplikation erfolgte in eine Vena jugularis (wäßrige Lösung, 1 ml/kg). Als ED 20 % wurden aus der linearen Regression zwischen log Dosis (mg/kg) und relativer Blutdrucksenkung (Δ%) die Dosen ermittelt, welche eine 20 %ige Blutdrucksenkung bewirken.

In test [1] the test system is narkotisierten Ratten (Stamm: Spraque Dawley). The test is described as follows: Hypotensive effect: blood pressure lowering in urethane-anaesthetised rats. Type of test: in vivo, Ratte. As to conditions: for ED20: Rattus norvegicus, iv, read-out: Blutdrucksenkung ED 20 %; for Blutdrucksenkung ED 20 % R.W. (Relative Wirksamkeit: Chlorpromazin = 1,00) / Blutdrucksenkung ED 20 % R.W. (Relative Wirksamkeit; Chlorpromazin = 1,00): i.v.; for Q (ED 50 % Motilitätshemmung / ED 20 % Blutdrucksenkung): ratio of mouse p.o. ED 50 % to rat i.v. ED 20 %; for hypotensiv wirksame Dosen, -mal größer als die der Referenzsubstanz: rat i.v.
From the text: as §1

The mark [2] stands for this setting: Table 1, Applikation: per. os., measured 30 min after application for 30 min.
The mark [3] stands for this setting: Table 1, Ratte, Urethan-Narkose, Applikation: i.v.
The mark [4] stands for this setting: Table 2, Ratte, Urethan-Narkose.
Setting [5] is: Table 2, Ratte, Urethan-Narkose, Applikation: i.v.
[6] abbreviates: Table 1, Ratte, Urethan-Narkose.

SMILES strings stand for the structures. Where two headings read alike, the source gives them in different places.

With `O=C1CCc2c(OCC(O)CN3CCN(c4ccc(F)cc4)CC3)cccc21` (racemic) [Beispiel 1, 4-(3-[4-(4-Fluorphenyl)-1-piperazinyl]-2-hydroxy-propoxy)--indanon-1], the ED50 in the test with weiblichen NMRI-Mäusen (setting [2]) turned out to be 3.05 mg/kg. In the test with weiblichen NMRI-Mäusen, the “Wirkungsstärke (sedativ) der Referenzsubstanz” value came out at 69% and the “sedative Wirkung” value is recorded as “sedativ wirken”. The ED20 in test [1] (setting [3]) stood at 1.07 mg/kg.
Consider `Cc1ccccc1N1CCN(CC(O)COc2cccc3c2CCC3=O)CC1` (racemic) [Beispiel 10, 4-(3-[4-(2-Methylphenyl)-1-pipera-zinyl]-2-hydroxy-propoxy)-indanon-1], for which the ED50 with weiblichen NMRI-Mäusen (Table 2, Applikation: per os.) amounted to 46.4 mg/kg. Besides, in the test on weiblichen NMRI-Mäusen, the “Motilitätshemmung um 50 %: -mal größere Dosen als Referenzsubstanz” value (“Motilitätshemmung um 50 %” for short) worked out at 20 mal. Further, in test [1] (setting [4]), the “Blutdrucksenkung ED 20 % R.W. (Relative Wirksamkeit: Chlorpromazin = 1,00)” value is listed as 0,16. In addition, in test [1] (Table 2), the “Q (ED 50 % Motilitätshemmung / ED 20 % Blutdrucksenkung)” value stood at 294. Besides, in test [1] (relative to Chlorpromazin), the “Wirksamkeit nach den blutdrucksenkenden Dosen (ED 20 %) von Chlorpromazin” value was determined as 16%.
For the compound `COc1ccccc1N1CCN(CC(O)COc2cccc3c2CCC3=O)CC1` (racemic) [Beispiel 13, 4-(3-[4-(2-Methoxyphenyl)-1-pipera-zinyl]-2-hydroxy-propoxy)-indanon-1], in the test with weiblichen NMRI-Mäusen (Table 2, Applikation: per os.), the ED50 amounted to 11 mg/kg. The “Motilitätshemmung um 50 %” value with weiblichen NMRI-Mäusen came out at 5 mal. Also, the ED20 in test [1] (setting [5]) was 0.0293 mg/kg. In addition, the “Blutdrucksenkung ED 20 % R.W. (Relative Wirksamkeit: Chlorpromazin = 1,00)” value in test [1] (setting [4]) is 0,89. In addition, the “Q (ED 50 % Motilitätshemmung / ED 20 % Blutdrucksenkung)” value in test [1] (Table 2) amounted to 376. Also, in test [1] (relative to Chlorpromazin), the “Wirksamkeit nach den blutdrucksenkenden Dosen (ED 20 %) von Chlorpromazin” value amounted to 89%.
Turning to `COc1cccc(N2CCN(CC(O)COc3cccc4c3CCC4=O)CC2)c1` (racemic) [Beispiel 14, 4-(3-[4-(3-Methoxyphenyl)-1-pipera-zinyl]-2-hydroxy-propoxy)-indanon-1], the ED50 in the test on weiblichen NMRI-Mäusen (setting [2]) was determined as 9.44 mg/kg. In the test with weiblichen NMRI-Mäusen, the “Wirkungsstärke (sedativ) der Referenzsubstanz” value turned out to be 22% and the “sedative Wirkung” value is “sedativ wirken”. Moreover, in test [1] (setting [3]), the ED20 amounted to 1 mg/kg.
On to `COc1ccccc1N1CCN(CC(O)COc2ccc3c(c2)CCC3=O)CC1` (racemic) [Beispiel 17], for which the ED50 in the test with weiblichen NMRI-Mäusen (Table 2, Applikation: per os.) worked out at 13.2 mg/kg. Moreover, in test [1], the “Quotienten aus den effektiven Dosen für die Motilitätshemmung (ED 50 %) und Blutdrucksenkung (ED 20 %)” value was determined as 183. Besides, the ED20 in test [1] (setting [5]) was 0.0722 mg/kg. Moreover, the “Blutdrucksenkung ED 20 % R.W. (Relative Wirksamkeit: Chlorpromazin = 1,00)” value in test [1] (setting [4]) is listed as 0,36. Further, the “Q (ED 50 % Motilitätshemmung / ED 20 % Blutdrucksenkung)” value in test [1] (Table 2) turned out to be 183.
For the compound `COc1ccc(N2CCN(CC(O)COc3ccc4c(c3)CCC4=O)CC2)cc1` (racemic) [Beispiel 19, 5-(3-[4-(4-Methoxyphenyl)-1-piperazi-nyl]-2-hydroxy-propoxy)-indanon-1], the ED50 in the test with weiblichen NMRI-Mäusen (setting [2]) is 5.76 mg/kg. In addition, the “sedative Wirkung” value in the test with weiblichen NMRI-Mäusen is on record as “sedativ wirken”. For the same compound, the ED20 in test [1] (setting [3]) was 7.91 mg/kg. For the same compound, the “hypotensiv wirksame Dosen, -mal größer als die der Referenzsubstanz” value in test [1] (relative to Chlorpromazin) turned out to be 300 mal.
Consider `O=C1CCc2cccc(OCC(O)CN3CCN(c4ccccc4Cl)CC3)c21` (racemic) [Beispiel 20, 7-(3-[4-(2-Chlorphenyl)-1-piperazinyl]--2-hydroxy-propoxy)-indanon-1], for which the ED50 in the test with weiblichen NMRI-Mäusen (Table 2, Applikation: per os.) was found to be 42.4 mg/kg. Also, in the test on weiblichen NMRI-Mäusen, the “Motilitätshemmung um 50 %” value was 20 mal. In addition, the “Quotienten aus den effektiven Dosen für die Motilitätshemmung (ED 50 %) und Blutdrucksenkung (ED 20 %)” value in test [1] is given as 4 077. In addition, the ED20 in test [1] (setting [5]) came to 0.0104 mg/kg. For the same compound, the “Blutdrucksenkung ED 20 % R.W. (Relative Wirksamkeit: Chlorpromazin = 1,00)” value in test [1] (setting [4]) is reported as 2,50. Moreover, the “Q (ED 50 % Motilitätshemmung / ED 20 % Blutdrucksenkung)” value in test [1] (Table 2) is 4077. For the same compound, the “stärker wirksam als Chlorpromazin (Blutdrucksenkung ED 20 %)” value in test [1] (relative to Chlorpromazin) is given as 2,5 mal.
`COc1ccccc1N1CCN(CC(O)COc2cccc3c2C(=O)CC3)CC1` (racemic) [Beispiel 23, 7-(3-[4-(2-Methoxyphenyl)-1-piperazi-nyl]-2-hydroxy-propoxy)-indanon-1]: the ED50 with weiblichen NMRI-Mäusen (Table 2, Applikation: per os.) was 19 mg/kg. Moreover, the ED20 in test [1] (setting [5]) was 0.057 mg/kg. Also, the “Blutdrucksenkung ED 20 % R.W. (Relative Wirksamkeit: Chlorpromazin = 1,00)” value in test [1] (setting [4]) was 0,46. Besides, the “Q (ED 50 % Motilitätshemmung / ED 20 % Blutdrucksenkung)” value in test [1] (Table 2) worked out at 333.
Turning to `O=C1CCc2c(OCCCN3CCN(c4ccc(F)cc4)CC3)cccc21` [Beispiel 4, 4-(3-[4-(4-Fluorphenyl)-1-piperazinyl]-propoxy)-indan-1-on], the ED50 with weiblichen NMRI-Mäusen (setting [2]) amounted to 3.56 mg/kg. For the same compound, the “sedative Wirkung” value with weiblichen NMRI-Mäusen is given as “sedativ wirken”. The “Blutdrucksenkung ED 20 % R.W. (Relative Wirksamkeit; Chlorpromazin = 1,00)” value in test [1] (setting [6]) is 0,14.
On to `O=C1CCc2cccc(OCCCN3CCN(c4ccc(F)cc4)CC3)c21` [Beispiel 30, 7-(3-[4-(4-Fluorphenyl)-1-piperazinyl]--propoxy)-indanon-1], for which the ED50 with weiblichen NMRI-Mäusen (setting [2]) is 5.03 mg/kg. For the same compound, the “sedative Wirkung” value in the test with weiblichen NMRI-Mäusen is given as “sedativ wirken”. In test [1] (setting [6]), the “Blutdrucksenkung ED 20 % R.W. (Relative Wirksamkeit; Chlorpromazin = 1,00)” value is listed as 0,16. Further, the “hypotensiv wirksame Dosen, -mal größer als die der Referenzsubstanz” value in test [1] (relative to Chlorpromazin) is on record as 6 mal.
`CN(C)CCCN1c2ccccc2Sc2ccc(Cl)cc21` [Chlorpromazin, reference compound]: the ED50 in the test with weiblichen NMRI-Mäusen (setting [2]) is 2.11 mg/kg. In test [1], the “Quotienten aus den effektiven Dosen für die Motilitätshemmung (ED 50 %) und Blutdrucksenkung (ED 20 %)” value is on record as 81 and the ED20 turned out to be 0.026 mg/kg. For the same compound, in test [1] (setting [6]), the “Blutdrucksenkung ED 20 % R.W. (Relative Wirksamkeit; Chlorpromazin = 1,00)” value is on record as 1,00. For the same compound, the “Blutdrucksenkung ED 20 %” value in test [1] (setting [5]) is given as 0,0260 mg/kg. Moreover, the “Blutdrucksenkung ED 20 % R.W. (Relative Wirksamkeit: Chlorpromazin = 1,00)” value in test [1] (setting [4]) is given as 1,00. For the same compound, the “Q (ED 50 % Motilitätshemmung / ED 20 % Blutdrucksenkung)” value in test [1] (Table 2) came to 81.
